The values that follow come from patent US6472526B1, “Imidazole derivatives having an inhibitory activity for farnesyl transferase and process for preparation thereof” (LG Chemical Ltd., priority 1997, dated 2002).

For test [1], the target named is T1, Ras farnesyl transferase (Homo sapiens, UniProt P49354+P49356).
T1 construct: made in house
Briefly: In vitro inhibitory activity for Ras farnesyl transferase, H-Ras substrate. To be noted: recombinant farnesyl transferase 4.5 nM, Ras substrate protein 1.5 μM, tritium-farnesylpyrophosphate 0.15 μM, 30 minutes at 37° C.; read-out: H-Ras IC50. It is filed as biochemical. The method, then:
In the present experiment, Ras farnesyl transferase produced by genetic recombination techniques according to the improved Pompliano's method (Pompliano et al., Biochemistry, 1992, 31, 3800) was used, and Ras substrate (Ras-CVLS) protein described in Korean Patent Appln. No. 97-14409 was used after it has been purified according to the known method (see, Chung et al., Biochimica et Biophysica Acta, 1992, 278, 1129).
The enzyme reaction was performed in 50 μl of 50 mM Sodium HEPES buffer solution containing 25 mM of potassium chloride, 25 mM of magnesium chloride, 10 mM of DTT and 50 μM of zinc chloride. 1.5 μM of Ras substrate protein, 0.15 μM of tritium-farnesylpyrophosphate and 4.5 nM of farnesyl transferase were used.
More specifically, in the initial step, farnesyl transferase was added to the above buffer solution, reaction was maintained for 30 minutes at 37° C. and then the reaction was stopped by adding 1 ml of ethanol solution containing 1M HCl. The formed precipitates were adsorbed to GF/B filter using Hopper harvestor(Hopper #FH 225V) for filter-binding, washed with ethanol, and then radioactivity of the dried filter was measured using LKB β counter. Enzyme titer was measured in the unsaturated state of substrate where the concentrations of Ras substrate protein and farnesyl transferase have quantitative relationship. The compound according to the present invention dissolved in dimethyl sulfoxide (DMSO) was added to the reaction solution in an amount of less than 5% of the total reaction solution, and then the enzyme inhibitory activity thereof was measured. The enzyme inhibitory activity was represented by percentage of the amount of farnesyl incorporated into the Ras substrate protein in the presence of the test compound to that in the absence of the test compound. IC50 of the test compound was defined as the concentration at which 50% of the enzyme activity was inhibited.

In test [2] the target is T1, Ras farnesyl transferase. Briefly: In vitro inhibitory activity for Ras farnesyl transferase, K-Ras substrate. It is filed as biochemical. To be noted: in vitro farnesyl transferase assay, K-Ras; read-out: K-Ras IC50.
Test [3] has as its target T2, Ras farnesyl transferase (Rattus norvegicus, UniProt Q02293+Q04631).
T2 construct: endogenous in cells; host or cells: Rat2 fibroblasts transformed with H-Ras or with an H-Ras/K-Ras C-terminus fusion
The test can be described thus: In vivo (cellular) inhibitory activity for Ras farnesyl transferase, Rat2 cell line which expresses C-Harvey-Ras protein. It is filed as cell-based. To be noted: Rat2 cell line expressing C-Harvey-Ras; concentration inhibiting 50% of farnesyl bonding of Ras protein; read-out: H-Ras CIC50. As for the experimental part: (§1) In the present experiment, Rat2 cell line which expresses C-Harvey-Ras protein having transforming activity and Rat2 cell line (Korean patent application No. 97-14409) which is transformed with fused protein of H-Ras substituted with polybasic lysine domain at C-terminus of K-Ras were used. The experiment was performed by the modified Declue's method (Declue. J. E. et al., Cancer Research, 1991, 51, 712). Hereinafter, the experimental method will be described in more detail.
(§2) 3×10^5 cells of transformed Rat2 fibroblast cell line were sprayed on 60 mm cell cultivation dish and cultivated for 48 hours in a cell incubator at 37° C. and after 50% or more of density was reached, it was treated with the test compounds. The compound according to the present invention dissolved in dimethylsulfoxide (DMSO) was used. 1% concentration of dimethylsulfoxide was used in both control and test groups. After 4 hours from the treatment with the compound, methionine labeled with 150 μCi of radioactive isotope [^35S] per 1 ml of medium was added and after cultivating for 20 hours, the cells were, washed with physiological saline water. The cells were lysed using 1 ml of cold cell lysis buffer solution (50 mM of Sodium HEPES buffer solution containing 5mM of magnesium chloride, 1 mM of DTT, 1% NP 40, 1 mM of EDTA, 1 mM of PMSF, 2 μM of leupeptin, 2 μM of pepstatin A and 2 μM of antipain) and the supernatant wherein the cells were lysed was obtained by high-velocity centrifugation of 12,000 g×5 minutes. The amount of radioisotope in the supernatant was measured and standardized to obtain a quantitative result in immunoprecipitation reaction and then, Y13-259, a monoclonal antibody specifically binding to Ras protein (Furth, M. E. et al., J. Virol, 1982, 43, 294) was added and reacted for 15 hours at 4° C. Protein A(combined with goat anti-murine immunoglobulin antibody)-agarose suspension was added to the solution and reacted for 1 hour at 4° C. and then, to remove the unspecific binding product, immunoprecipitates were washed with a buffer solution (50 mM Tris chloride buffer solution containing 50 mM of sodium chloride, 0.5% of sodium dioxycolate, 0.5% of NP 40 and 0.1% of SDS). The precipitates were added to a buffer solution for electrophoresis and boiled and then, electrophoresis was performed using 13.5% of SDS polyacrylamide gel. After electrophoresis, the gel was fixed and dried. Then, the gel was exposed to X-ray film, developed printed. From the result of the experiment, intensities of band of in combined with or without farnesyl of Ras protein were measured, the concentration of the test compound inhibiting 50% of farnesyl bonding was defined as […], an in vivo Ras farnesyl transferase inhibitory activity.

Test [4] deals with T2, Ras farnesyl transferase. Briefly: In vivo (cellular) inhibitory activity for Ras farnesyl transferase, Rat2 cell line transformed with fused protein of H-Ras substituted with polybasic lysine domain at C-terminus of K-Ras. The format is cell-based. To be noted: Rat2 cell line transformed with H-Ras fused with polybasic lysine domain of K-Ras C-terminus; concentration inhibiting 50% of farnesyl bonding; read-out: K-Ras CIC50. As for the experimental part: as §1, §2

pIC50: −log10 of the molar value.

Turning to “1-[1-(4-Methoxybenzyl)-1H-imidazol-5-yl]methyl-3-[N-(2-methoxyethyl)-N-methyl]carbamoyl-4-(naphthalen-1-yl)-1H-pyrrole [Compound 129]”, the pIC50 was 8.52 at Ras farnesyl transferase [1], 8.40 on Ras farnesyl transferase [2], 7.60 at Ras farnesyl transferase [3] and 4.30 to 5.00 on Ras farnesyl transferase [4].
For the compound `COCCN(C)C(=O)c1cn(Cc2cncn2C(C)c2ccccc2)cc1-c1cccc2ccccc12` (stereo in doubt) [Compound 8, 3-[N-(2-Methoxyethyl)-N-methyl]carbamoyl-1-[1-((R)-α-methylbenzyl)-1H-imidazol-5-ylmethyl]-4-(naphthalen-1-yl)-1H-pyrrole], the pIC50 at Ras farnesyl transferase [1] is 8.40; at Ras farnesyl transferase [2], 8.10; on Ras farnesyl transferase [3], 7.60; on Ras farnesyl transferase [4], 4.30 to 5.00.
Taken in the same sequence, the figures for `CC(c1ccccc1)n1cncc1Cn1cc(C(=O)N2CCOCC2)c(-c2cccc3ccccc23)c1` (stereo in doubt) [Compound 9, 1-[1-((R)-α-Methylbenzyl)-1H-imidazol-5-ylmethyl]-3-(morpholin-4-yl)carbonyl-4-(naphthalen-1-yl)-1H-pyrrole] were 8.30, 8.18, 7.60 and 4.30 to 5.00.
The like results for `CC(c1ccccc1)n1cncc1Cn1cc(C(=O)N2CCN(C)CC2)c(-c2cccc3ccccc23)c1` (stereo in doubt) [Compound 10, 1-[1-((R)-α-Methylbenzyl)-1H-imidazol-5-ylmethyl]-3-(4-methylpiperazin-1-yl)carbonyl-4-(naphthalen-1-yl)-1H-pyrrole] were, in that order, 9.07, 8.30, 7.90 and 4.30 to 5.00.
Taken in the same sequence, the figures for `COC(=O)C(CCSC)NC(=O)c1cn(Cc2cncn2Cc2ccc(C#N)cc2)cc1-c1cccc2ccccc12` (stereo in doubt) [Compound 100, (S)-1-[1-(4-Cyanobenzyl)-1H-imidazol-5-yl]methyl-3-[N-(1-methoxycarbonyl-3-methylthio)propyl]carbamoyl-4-(naphthalen-1-yl)-1H-pyrrole] were 5.74, 5.00 to 7.00, under 6.00 and under 4.70.
Regarding `O=C(c1cn(Cc2cncn2Cc2ccc3c(c2)OCO3)cc1-c1cccc2ccccc12)N1CCOCC1` [Compound 2, 1-[1-(3,4-Methylenedioxybenzyl)-1H-imidazol-5-ylmethyl]-3-(morpholin-4-yl)carbonyl-4-(naphthalen-1-yl)-1H-pyrrole], the pIC50 at Ras farnesyl transferase [1] was 9.07; on Ras farnesyl transferase [2] it was 8.70; on Ras farnesyl transferase [3] it was 7.60; on Ras farnesyl transferase [4] it was 4.30 to 5.00.
Taken in the same sequence, the figures for `CN1CCN(C(=O)c2cn(Cc3cncn3Cc3ccc4c(c3)OCO4)cc2-c2cccc3ccccc23)CC1` [Compound 3, 1-[1-(3,4-Methylenedioxybenzyl)-1H-imidazol-5-ylmethyl]-3-(4-methylpiperazin-1-yl)carbonyl-4-(naphthalen-1-yl)-1H-pyrrole] were 9.00, 8.62, 7.60 and 4.82.
Taken in the same sequence, the figures for `CN(C)CCN(C)C(=O)c1cn(Cc2cncn2Cc2ccc3c(c2)OCO3)cc1-c1cccc2ccccc12` [Compound 4, 3-{N-[2-(N,N-Dimethylamino)ethyl]-N-methyl}carbamoyl-1-[1-(3,4-methylendioxybenzyl)-1H-imidazol-5-ylmethyl]-4-(naphthalen-1-yl)-1H-pyrrole] were 7.33, 6.12, 6.00 to 7.00 and 4.00 to 5.00.
For the compound `COCCN(C)C(=O)c1cn(Cc2cncn2Cc2cccc3ccccc23)cc1-c1cccc2ccccc12` [Compound 5], the pIC50 was 8.43 at Ras farnesyl transferase [1], 8.07 at Ras farnesyl transferase [2], 7.60 on Ras farnesyl transferase [3] and 4.30 to 5.00 at Ras farnesyl transferase [4].
The like results for `O=C(c1cn(Cc2cncn2Cc2cccc3ccccc23)cc1-c1cccc2ccccc12)N1CCOCC1` [Compound 6] were, in that order, 9.00, 8.70, 7.60 and 4.30 to 5.00.
As to `Cn1cncc1Cn1cc(C(=O)N2CCOCC2)c(-c2cccc3ccccc23)c1` [Compound 99, 1-(1-Methyl-1H-imidazol-5-yl)methyl-3-(morpholin-4-yl)carbonyl(naphthalen-1-yl)-1H-pyrrole], the pIC50 is 7.00 at Ras farnesyl transferase [3] and under 4.30 on Ras farnesyl transferase [4].
On to `COCCN(C)C(=O)c1nc(Cc2cncn2Cc2ccc(Cl)cc2)sc1-c1cccc2ccccc12` [Compound 147, 2-[1-(4-Chlorobenzyl)-1H-imidazol-5-ylmethyl]-4-[N-(2-methoxy)ethyl-N-methylcarbamoyl]-5-(naphthalen-1-yl)thiazole], for which the pIC50 on Ras farnesyl transferase [1] is 8.70; on Ras farnesyl transferase [2], 7.52; on Ras farnesyl transferase [3], 7.30.
Taken in the same sequence, the figures for `COCCN(C)C(=O)c1cn(Cc2cncn2CC2CCN(C(=O)OCc3ccccc3)CC2)nc1-c1cccc2ccccc12` [Compound 152, 1-[1-(1-Benzyloxycarbonyl-piperidin-4-ylmethyl)-1H-imidazol-5-ylmethyl]-4-[N-(2-methoxyethyl)-N-methyl]carbamoyl-3-(naphthalen-1-yl)-1H-pyrazole] were 7.64, 7.15 and 7.00.
The like results for `COCCN(C)C(=O)c1cn(Cc2cncn2CC2CCN(C(=O)OC)CC2)nc1-c1cccc2ccccc12` [Compound 153, 1-[1-(1-Methoxycarbonylpiperidin-4-ylmethyl)-1H-imidazole-5-ylmethyl]-4-[N-(2-methoxyethyl)-N-methyl]-carbamoyl-3-(naphthalen-1-yl)-1H-pyrazole] were, in that order, 7.52, 7.00 and 6.82.
Taken in the same sequence, the figures for `COCCN(C)C(=O)c1cn(Cc2cncn2Cc2ccc(Br)cc2)nc1-c1cccc2ccccc12` [Compound 154, 1-[1-(4-Bromobenzyl)-1H-imidazol-5-ylmethyl]-4-[N-(2-methoxyethyl)-N-methyl]-carbamoyl-3-(naphthalen-1-yl)-1H-pyrazole] were 7.52, 6.70 and 6.82.
Turning to `COC(=O)N1CCC(Cn2cncc2Cn2cc(C(=O)N3CCOCC3)c(-c3cccc4ccccc34)n2)CC1` [Compound 159], the values for the pIC50 at Ras farnesyl transferase [1], on Ras farnesyl transferase [2] and at Ras farnesyl transferase [3] were 6.52, 5.40 and 5.92, respectively.
